Assay results from US11155517B2, “4-substituted phenylamine derivatives and their use to protect crops by fighting undesired phytopathogenic micoorganisms” (PI INDUSTRIES LTD., priority 2016, dated 2021).

What was measured:
Botrytis cinerea = Botrytis cinerea (gray mold) in vitro test, radial growth on Potato Dextrose Agar; format: cell-based; settings: 168 h, 300 ppm, seven days, 22° C., read-out: % (control) compared to the untreated check (radial growth)
Colletotrichum capsici = Colletotrichum capsici (anthracnose) in vitro test, radial growth on Potato Dextrose Agar; format: cell-based; settings: Colletotrichum truncatum, 168 h; 300 ppm; seven days, 25° C.; read-out: % control compared to the untreated check (radial growth)
Fusarium culmorum [1] = experiment: Fusarium culmorum (foot rot of cereals) in vitro test, radial growth on Potato Dextrose Agar; format: cell-based; settings: Fusarium culmorum, 168 h, read-out: % control compared to the untreated check (radial growth)
Pyricularia oryzae [2] = experiment: whole plant or invertebrate; format: in vivo; settings: 24 h, read-out: Efficacy (% control), disease severity vs untreated check
Alternaria solani [3] = experiment: Alternaria solani (early blight of tomato/potato) in vitro test, radial growth on Potato Dextrose Agar; format: cell-based; settings: 168 h, 300 ppm, seven days, 25° C., read-out: % control compared to the untreated check (radial growth)
Pyricularia oryzae [4] = experiment: microbe, parasite or virus in culture; format: cell-based; settings: 168 h, read-out: % control compared to the untreated check (radial growth)
Rhizoctonia solani = Rhizoctonia solani (rice sheath blight/potato black scurf) in vitro test, radial growth on Potato Dextrose Agar; format: cell-based; settings: 168 h, 300 ppm, seven days, 25° C., read-out: % control compared to the untreated check (radial growth)
Septoria lycopersici = Septoria lycopersici (leaf spot of tomato) in vitro test, radial growth on Potato Dextrose Agar; format: cell-based; settings: 168 h, seven days, 25° C., read-out: % control compared to the untreated check (radial growth)
Alternaria solani [5] = experiment: Greenhouse Alternaria solani test in tomato, preventive; format: in vivo; settings: 24 h, tomato plants sprayed one day before inoculation, read-out: Efficacy (% control), disease severity vs untreated check
Experimental: Compounds were dissolved in 2% DMSO/Acetone & then mixed with water to calibrated spray volume of 50 ml. This 50 ml spray solution was poured into the spray bottles for further applications. To test the preventive activity of compounds, healthy young Tomato plants raised in the greenhouse were sprayed with active compound preparation at the stated application rates inside the spray cabinets using hallowcone nozzles. One day after treatment, the plants were inoculated with spore suspension (2% Malt) containing 0.24×10^6 Alternaria solani inoculum. The inoculated plants were then kept in greenhouse chamber at 22-24° C. temperature and 90-95% relative humidity for disease expression. […] Efficacy (% control) of the compounds was calculated by comparing the disease rating in the treatment with untreated control. The sprayed plants were also assessed for compound's phytotoxic effects by recording symptoms like necrosis, chlorosis and stunting.

Botrytis cinera = experiment: Greenhouse Botrytis cinera test in tomato, preventive; format: in vivo; settings: 24 h, plants sprayed one day before inoculation, read-out: Efficacy (% control), disease severity vs untreated check
Fusarium culmorum [6] = experiment: Greenhouse Fusarium culmorum test in wheat, preventive; format: in vivo; settings: 24 h, read-out: Efficacy (% control), disease severity vs untreated check
How it was run: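 Young greenhouse wheat sprayed preventively at stated rates (compounds in 2% DMSO/acetone, diluted in water), inoculated one day later with 2×10^6 Fusarium culmorum spores in 2% malt, held at 24 °C, 80-90% RH. Disease severity (0-100%) rated 3, 7, 10 and 15 days after application; % control versus untreated, phytotoxicity also recorded.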

## Cc1cc(N=CN2CCOCC2)c(C)cc1Cc1ccccc1Cl [Compound 63, N-(4-(2-chlorobenzyl)-2,5-dimethylphenyl)-1-morpholinomethanimine]
Botrytis cinerea
  inhibition of growth at 300 ppm: > 80%
Colletotrichum capsici
  inhibition of growth at 300 ppm: > 80%
Fusarium culmorum [1]
  inhibition of growth at 300 ppm: 75%
Pyricularia oryzae [2]
  pest or weed control at 500 ppm: 70 to 100%
Alternaria solani [3]
  inhibition of growth at 300 ppm: > 75%
Pyricularia oryzae [4]
  inhibition of growth at 300 ppm: > 75%
Rhizoctonia solani
  inhibition of growth at 300 ppm: > 80%
Septoria lycopersici
  inhibition of growth at 300 ppm: > 70%

## CCN(C)C=Nc1cc(C)c(Cc2ccccc2C(F)(F)F)cc1C [Compound 93, N′-(2,5-dimethyl-4-(2-(trifluoromethyl)benzyl)phenyl)-N-ethyl-N-methylformimidamide]
Botrytis cinerea
  inhibition of growth at 300 ppm: > 80%
Colletotrichum capsici
  inhibition of growth at 300 ppm: > 80%
Fusarium culmorum [1]
  inhibition of growth at 300 ppm: 75%
Pyricularia oryzae [2]
  pest or weed control at 500 ppm: 70 to 100%
Alternaria solani [3]
  inhibition of growth at 300 ppm: > 75%
Pyricularia oryzae [4]
  inhibition of growth at 300 ppm: > 75%
Rhizoctonia solani
  inhibition of growth at 300 ppm: > 80%
Septoria lycopersici
  inhibition of growth at 300 ppm: > 70%

## CCN(C)C=Nc1cc(C)c(Cc2ccccc2SC)cc1C [Compound 23, N′-(2,5-dimethyl-4-(2-(methylthio)benzyl)phenyl)-N-ethyl-N-methylformimidamide]
Botrytis cinerea
  inhibition of growth at 300 ppm: > 80%
Alternaria solani [5]
  pest or weed control at 500 ppm: 70 to 100%
Colletotrichum capsici
  inhibition of growth at 300 ppm: > 80%
Botrytis cinera
  pest or weed control at 500 ppm: 70 to 100%
Fusarium culmorum [1]
  inhibition of growth at 300 ppm: 75%
Alternaria solani [3]
  inhibition of growth at 300 ppm: > 75%
Pyricularia oryzae [4]
  inhibition of growth at 300 ppm: > 75%
Rhizoctonia solani
  inhibition of growth at 300 ppm: > 80%
Fusarium culmorum [6]
  pest or weed control at 500 ppm: 70 to 100%
Septoria lycopersici
  inhibition of growth at 300 ppm: > 70%

## CCN(C)C=Nc1cc(C)c(Cc2cc(C(F)(F)F)cc(C(F)(F)F)c2)cc1Cl [Compound 96, N′-(4-(3,5-bis(trifluoromethyl)benzyl)-2-chloro-5-methylphenyl)-N-ethyl-N-methylformimidamide]
Pyricularia oryzae [2]
  pest or weed control at 500 ppm: 70 to 100%
Alternaria solani [3]
  inhibition of growth at 300 ppm: > 75%
Fusarium culmorum [6]
  pest or weed control at 500 ppm: 70 to 100%

## CCN(C)C=Nc1cc(C)c(Cc2ccccc2C)cc1C [Compound 32, N′-(2,5-dimethyl-4-(2-methylbenzyl)phenyl)-N-ethyl-N-methylformimidamide]
Botrytis cinerea
  inhibition of growth at 300 ppm: > 80%
Alternaria solani [5]
  pest or weed control at 500 ppm: 70 to 100%
Colletotrichum capsici
  inhibition of growth at 300 ppm: > 80%
Botrytis cinera
  pest or weed control at 500 ppm: 70 to 100%
Fusarium culmorum [1]
  inhibition of growth at 300 ppm: 75%
Alternaria solani [3]
  inhibition of growth at 300 ppm: > 75%
Pyricularia oryzae [4]
  inhibition of growth at 300 ppm: > 75%
Rhizoctonia solani
  inhibition of growth at 300 ppm: > 80%
Fusarium culmorum [6]
  pest or weed control at 500 ppm: 70 to 100%
Septoria lycopersici
  inhibition of growth at 300 ppm: > 70%

## CCN(C)C=Nc1cc(C)c(Cc2cc(F)cc(Cl)c2)cc1C [Compound 135, N′-(4-(3-chloro-5-fluorobenzyl)-2,5-dimethylphenyl)-N-ethyl-N-methylformimidamide]
Botrytis cinerea
  inhibition of growth at 300 ppm: > 80%
Colletotrichum capsici
  inhibition of growth at 300 ppm: > 80%
Pyricularia oryzae [2]
  pest or weed control at 500 ppm: 70 to 100%
Alternaria solani [3]
  inhibition of growth at 300 ppm: > 75%
Pyricularia oryzae [4]
  inhibition of growth at 300 ppm: > 75%
Rhizoctonia solani
  inhibition of growth at 300 ppm: > 80%
Septoria lycopersici
  inhibition of growth at 300 ppm: > 70%

## CCN(C)C=Nc1cc(C)c(Cc2ccc(C)cc2)cc1Cl [Compound 44, N′-(2-chloro-5-methyl-4-(4-methylbenzyl)phenyl)-N-ethyl-N-methylformimidamide]
Botrytis cinerea
  inhibition of growth at 300 ppm: > 80%
Colletotrichum capsici
  inhibition of growth at 300 ppm: > 80%
Fusarium culmorum [1]
  inhibition of growth at 300 ppm: 75%
Pyricularia oryzae [2]
  pest or weed control at 500 ppm: 70 to 100%
Alternaria solani [3]
  inhibition of growth at 300 ppm: > 75%
Pyricularia oryzae [4]
  inhibition of growth at 300 ppm: > 75%
Rhizoctonia solani
  inhibition of growth at 300 ppm: > 80%
Septoria lycopersici
  inhibition of growth at 300 ppm: > 70%

## CCN(C)C=Nc1cc(C)c(Cc2ccc(F)cc2Cl)cc1C [Compound 110, N′-(4-(2-chloro-4-fluorobenzyl)-2,5-dimethylphenyl)-N-ethyl-N-methylformimidamide]
Botrytis cinerea
  inhibition of growth at 300 ppm: > 80%
Colletotrichum capsici
  inhibition of growth at 300 ppm: > 80%
Fusarium culmorum [1]
  inhibition of growth at 300 ppm: 75%
Pyricularia oryzae [2]
  pest or weed control at 500 ppm: 70 to 100%
Alternaria solani [3]
  inhibition of growth at 300 ppm: > 75%
Pyricularia oryzae [4]
  inhibition of growth at 300 ppm: > 75%
Rhizoctonia solani
  inhibition of growth at 300 ppm: > 80%
Septoria lycopersici
  inhibition of growth at 300 ppm: > 70%

## CCN(C)C=Nc1cc(C)c(Cc2ccc(C(F)(F)F)cc2)cc1C [Compound 94, N′-(2,5-dimethyl-4-(4-(trifluoromethyl)benzyl)phenyl)-N-ethyl-N-methylformimidamide]
Botrytis cinerea
  inhibition of growth at 300 ppm: > 80%
Colletotrichum capsici
  inhibition of growth at 300 ppm: > 80%
Botrytis cinera
  pest or weed control at 500 ppm: 70 to 100%
Fusarium culmorum [1]
  inhibition of growth at 300 ppm: 75%
Pyricularia oryzae [2]
  pest or weed control at 500 ppm: 70 to 100%
Alternaria solani [3]
  inhibition of growth at 300 ppm: > 75%
Pyricularia oryzae [4]
  inhibition of growth at 300 ppm: > 75%
Rhizoctonia solani
  inhibition of growth at 300 ppm: > 80%
Septoria lycopersici
  inhibition of growth at 300 ppm: > 70%
